Data on ten compounds can be found in patent US10787452B2 (Vertex Pharmaceuticals Incorporated, priority 2012, dated 2020).

The subject of this assay is HCT116 colorectal cancer cells. Briefly: Cisplatin sensitization assay (96 h cell viability MTS).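 Note: compound concentration needed to lower the Cisplatin-alone IC50 by a set fold.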 The following applies: 96 h MTS, compound plus Cisplatin. The assay is classed as cell-based. The procedure, abridged:
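Cisplatin and compound are dosed at the same time, both serially diluted 2-fold from 10 μM final across a full matrix. Plates sit at 37° C in 5% CO2 for 96 h before MTS addition.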

Consider `CC(C)N1CCC(C(=O)N2CCN(c3c(F)cncc3NC(=O)c3c(N)nn4cc(F)cnc34)CC2)C1` (stereo not shown) [I-N-206, 2-amino-6-fluoro-N-(5-fluoro-4-(4-(1-isopropylpyrrolidine-3-carbonyl)piperazin-1-yl)pyridin-3-yl)pyrazolo[1,5-a]pyrimidine-3-carboxamide], for which the “Cisplatin Sensitization Assay” value is on record as “+++ (Compounds with a Cisplatin sensitization value of <0.02 μM are marked with “+++.”)”.

For `N#CCc1cnc2c(C(=O)Nc3cnccc3OCC(F)(F)F)c(N)nn2c1` [I-O-34, 2-amino-6-(cyanomethyl)-N-(4-(2,2,2-trifluoroethoxy)pyridin-3-yl)pyrazolo[1,5-a]pyrimidine-3-carboxamide], the “Cisplatin Sensitization Assay” value is “++ (Compounds with a Cisplatin sensitization value >0.02 μM but <0.2 μM are marked with “++.”)”.

As for `CN1CCN(c2c(F)cncc2NC(=O)c2c(N)nn3cc(F)cnc23)CC1=O` [I-N-212, 2-amino-6-fluoro-N-(5-fluoro-4-(4-methyl-3-oxopiperazin-1-yl)pyridin-3-yl)pyrazolo[1,5-a]pyrimidine-3-carboxamide], the “Cisplatin Sensitization Assay” value was “+++ (Compounds with a Cisplatin sensitization value of <0.02 μM are marked with “+++.”)”.

`CN(C)S(=O)(=O)C1CCN(c2c(F)cncc2NC(=O)c2c(N)nn3cc(F)cnc23)CC1` [I-N-146, 2-amino-N-(4-(4-(N,N-dimethylsulfamoyl)piperidin-1-yl)-5-fluoropyridin-3-yl)-6-fluoropyrazolo[1,5-a]pyrimidine-3-carboxamide]: the “Cisplatin Sensitization Assay” value is “+++ (Compounds with a Cisplatin sensitization value of <0.02 μM are marked with “+++.”)”.

In the case of `Nc1nn2cc(F)cnc2c1C(=O)Nc1cnccc1C1CCN(C(=O)C23CCN(CC2)CC3)CC1` [I-C-18, 2-amino-6-fluoro-N-(4-(1-(quinuclidine-4-carbonyl)piperidin-4-yl)pyridin-3-yl)pyrazolo[1,5-a]pyrimidine-3-carboxamide], the “Cisplatin Sensitization Assay” value is “+ (Compounds with a Cisplatin sensitization value >0.2 μM but <5 μM are marked with “+.”)”.

Take `CN1CCN(CC2CCN(c3c(F)cncc3NC(=O)c3c(N)nn4cc(C5(C#N)CC5)cnc34)CC2)CC1` [I-N-192, 2-amino-6-(1-cyanocyclopropyl)-N-(5-fluoro-4-(4-((4-methylpiperazin-1-yl)methyl)piperidin-1-yl)pyridin-3-yl)pyrazolo[1,5-a]pyrimidine-3-carboxamide]: the “Cisplatin Sensitization Assay” value is given as “+++ (Compounds with a Cisplatin sensitization value of <0.02 μM are marked with “+++.”)”.

`CN1CCOC2(CCN(c3c(F)cncc3NC(=O)c3c(N)nn4cc(F)cnc34)CC2)C1` [I-N-272, 2-amino-6-fluoro-N-(5-fluoro-4-(4-methyl-1-oxa-4,9-diazaspiro[5.5]undecan-9-yl)pyridin-3-yl)pyrazolo[1,5-a]pyrimidine-3-carboxamide]: the “Cisplatin Sensitization Assay” value is recorded as “+++ (Compounds with a Cisplatin sensitization value of <0.02 μM are marked with “+++.”)”.

On to `CN(C)CCc1cnn(-c2ccncc2NC(=O)c2c(N)nn3cc(F)cnc23)c1` [I-N-9, 2-amino-N-(4-(4-(2-(dimethylamino)ethyl)-1H-pyrazol-1-yl)pyridin-3-yl)-6-fluoropyrazolo[1,5-a]pyrimidine-3-carboxamide], for which the “Cisplatin Sensitization Assay” value is on record as “+ (Compounds with a Cisplatin sensitization value >0.2 μM but <5 μM are marked with “+.”)”.

On to `CN(C)CCOc1ccncc1NC(=O)c1c(N)nn2cc(CC#N)cnc12` [I-O-24, 2-amino-6-(cyanomethyl)-N-(4-(2-(dimethylamino)ethoxy)pyridin-3-yl)pyrazolo[1,5-a]pyrimidine-3-carboxamide], for which the “Cisplatin Sensitization Assay” value is on record as “++ (Compounds with a Cisplatin sensitization value >0.02 μM but <0.2 μM are marked with “++.”)”.

As for `CN1CCC(C(=O)N2CC=C(c3c(F)cncc3NC(=O)c3c(N)nn4cc(F)cnc34)CC2)CC1` [I-C-38, 2-amino-6-fluoro-N-(5-fluoro-1′-(1-methylpiperidine-4-carbonyl)-1′,2′,3′,6′-tetrahydro-[4,4′-bipyridin]-3-yl)pyrazolo[1,5-a]pyrimidine-3-carboxamide], the “Cisplatin Sensitization Assay” value is on record as “++ (Compounds with a Cisplatin sensitization value >0.02 μM but <0.2 μM are marked with “++.”)”.
